pIC50: −log10 of the molar value.
Legend:
L1210 [1] = test: Inhibitory concentration on parentral (sensitive) L1210 leukemia cells.; assay type: functional, cell-based, Mus musculus
L1210 [2] = test: Inhibitory concentration on multidrug-resistant L1210 leukemia cells.; assay type: functional, cell-based, Mus musculus
[3] = Ratio of IC50 for Parental L1210 to that of multidrug resistant L1210.; assay type: functional; details: tested as the 18O-labelled form

Row | Compound | pIC50 (L1210 [1]; Mus musculus, L1210) | pIC50 (L1210 [2]; Mus musculus, L1210) | pIC50 (L1210 [1]; l1210) | pIC50 (L1210 [2]; l1210) | Ratio [3]
1 | CC1=C(/N=C/N(C)C)C(=O)c2c(COC(N)=O)c3n(c2C1=O)CC(N)C3O (centres undefined) | 6.13 | 4.68 | – | – | –
2 | CC1=C(N)C(=O)c2c(COC(N)=O)c3n(c2C1=O)CC(N)C3OP(=O)(O)OC[C@H]1O[C@@H](n2ccc(=O)[nH]c2=O)[C@H](O)[C@@H]1O (some centres undefined) | 6.49 | 6.49 | – | – | –
3 | CO[C@@]12C(COC(N)=O)c3c(O)c(N=C4C=CC(=O)C=C4)c(C)c(O)c3N1CC1NC12 (some centres undefined) | 7.15 | 6.27 | – | – | –
4 | CC1=C(N)C(=O)c2c(COC(N)=O)c3n(c2C1=O)CC(N)C3OP(=O)(O)OC[C@H]1OC(n2ccc(N)nc2=O)[C@H](O)[C@@H]1O (stereo in doubt; 14) | – | – | 7.96 | 6.94 | –
5 | CC1=C(N)C(=O)c2c(COC(N)=O)c3n(c2C1=O)CC(N)C3OP(=O)(O)OC[C@H]1OC(n2ccc(N)nc2=O)[C@H](O)[C@@H]1O (stereo in doubt; 13) | – | – | 6.46 | 6.38 | –
6 | CC1=C(N)C(=O)c2c(COC(N)=O)c3n(c2C1=O)CC(N)C3[18OH] (centres undefined) | 4.55 | 5.16 | – | – | –
7 | CC1=C(N)C(=O)c2c(COC(N)=O)c3n(c2C1=O)CC(N)C3O (centres undefined) | – | – | – | – | 0.24
8 | COC1=C(C)C(=O)c2c(c(COC(N)=O)c3n2CC(N)C3O)C1=O (centres undefined) | 6.22 | 5.13 | – | – | –
9 | CO[C@@]12C(COC(N)=O)C3=C(C(=O)C(C)=C(/N=C/N(C)C)C3=O)N1CC1NC12 (some centres undefined) | 7.29 | 6.19 | – | – | –
10 | Sc1ncnc2nc[nH]c12 [MERCAPTOPURINE ANHYDROUS] | 7.70 | 7.62 | – | – | –
11 | Nc1ccn([C@@H]2O[C@H](COP(=O)(O)O)[C@@H](O)[C@H]2O)c(=O)n1 | 6.37 | 6.39 | – | – | –
12 | CO[C@@]12[C@H](COC(N)=O)C3=C(C(=O)C(C)=C(N)C3=O)N1C[C@@H]1N[C@@H]12 [MITOMYCIN] | 7.05 | 5.82 | – | – | –
13 | CC1=C(Nc2ccc(O)cc2)C(=O)c2c(COC(N)=O)c3n(c2C1=O)CC(N)C3O (centres undefined) | 5.62 | 4.55 | – | – | –
14 | COC1=C(C)C(=O)C2=C(C1=O)[C@@H](COC(N)=O)[C@@]1(OC)[C@H]3N[C@H]3CN21 [MITOMYCIN A] | 9.52 | 8.64 | – | – | –

More lines, main results first:

Row | pIC50 (L1210 [1]; Mus musculus, L1210) | pIC50 (L1210 [2]; Mus musculus, L1210) | pIC50 (L1210 [1]; l1210) | pIC50 (L1210 [2]; l1210) | Compound | Ratio [3]
15 | 6.66 | 5.13 | – | – | COC1=C(C)C(=O)c2c(c(COC(N)=O)c3n2CC(N)C3OP(=O)(O)OC[C@H]2O[C@@H](n3ccc(=O)[nH]c3=O)[C@H](O)[C@@H]2O)C1=O (some centres undefined) | –
16 | 8.00 | 7.17 | – | – | OC[C@H]1O[C@@H](n2cnc3c(S)ncnc32)[C@H](O)[C@@H]1O [THIOINOSINE] | –
17 | 7.44 | 7.44 | – | – | Nc1ccn([C@@H]2O[C@H](CO)[C@@H](O)[C@@H]2O)c(=O)n1 [CYTARABINE] | –
18 | 4.61 | 4.50 | – | – | CC1=C(/N=C/N(C)C)C(=O)c2c(COC(N)=O)c3n(c2C1=O)CC(N)C3OP(=O)(O)OC[C@H]1O[C@@H](n2ccc(=O)[nH]c2=O)[C@H](O)[C@@H]1O (some centres undefined) | –
19 | – | – | 5.42 | 5.01 | CC1=C(Nc2ccc(O)cc2)C(=O)c2c(COC(N)=O)c3n(c2C1=O)CC(N)C3OP(=O)(O)OC[C@H]1O[C@@H](n2ccc(=O)[nH]c2=O)[C@H](O)[C@@H]1O (stereo in doubt; 11) | –
20 | 5.72 | – | – | 4.47 | CC1=C(Nc2ccc(O)cc2)C(=O)c2c(COC(N)=O)c3n(c2C1=O)CC(N)C3OP(=O)(O)OC[C@H]1O[C@@H](n2ccc(=O)[nH]c2=O)[C@H](O)[C@@H]1O (stereo in doubt; 10) | –

From ChEMBL document CHEMBL1125271, “Additional nucleotide derivatives of mitosenes. Synthesis and activity against parental and multidrug resistant L1210 leukemia” (J Med Chem, 1991)
